# Data: patent US9890166B2, “Imidazopyrrolidine derivatives and their use in the treatment of disease” (NOVARTIS AG, priority 2013, dated 2018)
# Assays:
# [1] = biological target: BRD4 (His-Brd4(44-477)) (Homo sapiens (Human), UniProt O60885); assay: TR-FRET in-vitro binding assay for BRD4; details: single determination or n ≧ 2 independent determinations, read-out: Biochemical IC50 BRD4
# Procedure, shortened: (§1)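 TR-FRET binding with His-tagged bromodomain constructs, 8-point compound dilutions from 10 mM DMSO stocks. Reactions incubated 35 min at 30° C in 13.55 μL, read on an EnVision multilabel reader.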
# [2] = test system: K-562 cells; assay: Cell growth inhibition assay (CellTiter-Glo), K-562; details: for GI50: Homo sapiens, K562, read-out: K-562 GI50; for K-562 TGI: K-562 cells, total growth inhibition, CellTiter-Glo;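 as to all read-outs here: cellular ATP measured by luminescence after 4 days of exposure, 3-fold dilution series from 10 µM, DMSO vehicle-treated cells define 100%, cell-free medium wells −100%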
# [3] = test system: MV-4-11 cells; assay: Cell growth inhibition assay (CellTiter-Glo), MV-4-11; details: for GI50: Homo sapiens, MV4-11, read-out: MV-4-11 GI50; for MV-4-11 TGI: MV-4-11 cells, total growth inhibition, CellTiter-Glo;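 as to all read-outs here: cellular ATP luminescence after 4 days, 3-fold dilution series from 10 µM top dose, vehicle (0.1% DMSO) set to 100%, cell-free medium set to −100%, day 0 corrected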
# [4] = biological target: CREBBP bromodomain (His-CREBBP(1081-1197)) (Homo sapiens (Human), UniProt Q92793); assay: AlphaScreen in-vitro binding assay for CREBBP; details: single determination or n ≧ 2 independent determinations, read-out: Biochemical IC50 CREBBP
# Chain of CREBBP bromodomain (His-CREBBP(1081-1197)) (Q92793 1081-1197): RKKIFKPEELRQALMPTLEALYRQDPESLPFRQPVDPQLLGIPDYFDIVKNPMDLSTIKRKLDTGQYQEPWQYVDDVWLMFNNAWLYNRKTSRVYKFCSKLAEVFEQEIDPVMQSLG
# Procedure, shortened: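 Reactions at 30 °C for 35 min, then Ni-chelate acceptor and streptavidin donor beads in HEPES pH 7.5, NaCl, Tween20, BSA, 60 min at room temperature. Eight-point compound series; IC50 by non-linear regression of percent inhibition.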
# [5] = biological target: BRD3 (His-Brd3(20-477)) (Homo sapiens (Human), UniProt Q15059); assay: TR-FRET in-vitro binding assay for BRD3; details: single determination or n ≧ 2 independent determinations, read-out: Biochemical IC50 BRD3
# Chain of BRD3 (His-Brd3(20-477)) (Q15059 20-477): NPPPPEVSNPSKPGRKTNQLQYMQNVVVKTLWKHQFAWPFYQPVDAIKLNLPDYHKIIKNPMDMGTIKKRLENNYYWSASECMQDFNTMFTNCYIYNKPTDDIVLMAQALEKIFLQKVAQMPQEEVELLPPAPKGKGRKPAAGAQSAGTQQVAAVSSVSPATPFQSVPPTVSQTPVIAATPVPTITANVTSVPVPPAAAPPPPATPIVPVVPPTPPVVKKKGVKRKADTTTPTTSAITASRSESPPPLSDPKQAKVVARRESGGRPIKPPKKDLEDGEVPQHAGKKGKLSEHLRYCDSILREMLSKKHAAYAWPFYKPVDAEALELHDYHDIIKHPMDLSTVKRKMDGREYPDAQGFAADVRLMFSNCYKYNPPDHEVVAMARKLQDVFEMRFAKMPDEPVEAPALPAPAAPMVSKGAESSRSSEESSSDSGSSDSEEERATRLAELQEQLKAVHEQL
# Procedure, shortened: as §1
# [6] = test system: THP-1 cells; assay: Cell growth inhibition assay (CellTiter-Glo), THP-1; details: for GI50: Homo sapiens, THP-1, read-out: THP-1 GI50; for THP-1 TGI: THP-1 cells, total growth inhibition, CellTiter-Glo;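 as to all read-outs here: viability read as cellular ATP luminescence after 4 days, 3-fold dilution series from 10 µM, DMSO vehicle-treated cells taken as 100%, cell-free medium wells as −100%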
# [7] = biological target: BRD2 (His-Brd2(60-472)) (Homo sapiens (Human), UniProt P25440); assay: TR-FRET in-vitro binding assay for BRD2; details: single determination or n ≧ 2 independent determinations, read-out: Biochemical IC50 BRD2
# Chain of BRD2 (His-Brd2(60-472)) (P25440 60-472): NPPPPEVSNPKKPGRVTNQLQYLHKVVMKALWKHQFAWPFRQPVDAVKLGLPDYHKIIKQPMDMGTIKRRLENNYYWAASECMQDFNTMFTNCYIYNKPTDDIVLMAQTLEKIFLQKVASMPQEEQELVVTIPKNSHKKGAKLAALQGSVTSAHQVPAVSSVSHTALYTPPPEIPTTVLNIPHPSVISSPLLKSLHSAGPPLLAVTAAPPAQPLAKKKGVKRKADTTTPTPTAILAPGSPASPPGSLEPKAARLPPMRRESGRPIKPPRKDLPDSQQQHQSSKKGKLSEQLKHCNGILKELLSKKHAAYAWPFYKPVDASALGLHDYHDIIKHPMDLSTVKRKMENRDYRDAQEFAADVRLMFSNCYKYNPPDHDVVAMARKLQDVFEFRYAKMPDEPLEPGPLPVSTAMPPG
# Procedure, shortened: as §1
SMILES,IC50 [1] [nM],GI50 [2] [nM],K-562 TGI [2] [nM],GI50 [3] [nM],MV-4-11 TGI [3] [nM],IC50 [4] [nM],IC50 [5] [nM],GI50 [6] [nM],THP-1 TGI [6] [nM],IC50 [7] [nM]
"COc1ccc(-c2nc3c([nH]2)[C@@H](c2ccc(Cl)cc2)N(c2cc(C)c4nnc(C)n4c2)C3=O)cn1 [Example 129, (R)-6-(4-chlorophenyl)-5-(3,8-dimethyl-[1,2,4]triazolo[4,3-a]pyridin-6-yl)-2-(6-methoxypyridin-3-yl)-5,6-dihydropyrrolo[3,4-d]imidazol-4(1H)-one]",1840,1070,>10000,209,343,> 37000,2320,662,1080,4700
"Cc1cc(N2C(=O)c3nc(N4CCOCC4)n(C)c3C2c2ccc(Cl)cc2)cn(C)c1=O (centres unmarked) [Example 130, 6-(4-chlorophenyl)-5-(1,5-dimethyl-6-oxo-1,6-dihydropyridin-3-yl)-1-methyl-2-morpholino-5,6-dihydropyrrolo[3,4-d]imidazol-4(1H)-one]",180,1940,>10000,167,390.5,2400,160,526,1210,230
"Cc1cc(N2C(=O)c3nc(C)n(C(C)C)c3C2c2ccc(Cl)cc2)cn2c(C(F)F)nnc12 (centres unmarked) [Example 131, 6-(4-chlorophenyl)-5-(3-(difluoromethyl)-8-methyl-[1,2,4]triazolo[4,3-a]pyridin-6-yl)-1-isopropyl-2-methyl-5,6-dihydropyrrolo[3,4-d]imidazol-4(1H)-one]",28,87.5,>10000,16.4,29.5,> 37000,31,23.8,55,49
"COc1ncccc1-c1nc2c(n1C(C)C)C(c1ccc(Cl)cc1)N(c1cc(C)c3nnc(C(F)F)n3c1)C2=O (centres unmarked) [Example 132, 6-(4-chlorophenyl)-5-(3-(difluoromethyl)-8-methyl-[1,2,4]triazolo[4,3-a]pyridin-6-yl)-1-isopropyl-2-(2-methoxypyridin-3-yl)-5,6-dihydropyrrolo[3,4-d]imidazol-4(1H)-one]",< 11,51.8,>10000,9.44,18.9,27500,12,12.6,33.15,19
"COc1ncccc1-c1nc2c([nH]1)C(c1ccc(Cl)cc1)N(c1cc(C)c3nnn(C)c3c1)C2=O (centres unmarked) [Example 133, 6-(4-chlorophenyl)-5-(3,7-dimethyl-3H-benzo[d][1,2,3]triazol-5-yl)-2-(2-methoxypyridin-3-yl)-5,6-dihydropyrrolo[3,4-d]imidazol-4(1H)-one]",23,142,>10000,35.1,60.8,5400,19.5,65.6,137.5,35
"Cc1cc(N2C(=O)c3nc(C4=CCOCC4)[nH]c3C2c2ccc(Cl)cc2)cn(C)c1=O (centres unmarked) [Example 134, 6-(4-chlorophenyl)-2-(3,6-dihydro-2H-pyran-4-yl)-5-(1,5-dimethyl-6-oxo-1,6-dihydropyridin-3-yl)-5,6-dihydropyrrolo[3,4-d]imidazol-4(1H)-one]",38,610,>10000,72.4,141,1680,35,120,399,80
"Cc1cc(N2C(=O)c3nc(C4=CCN(C)CC4)[nH]c3C2c2ccc(Cl)cc2)cn(C)c1=O (centres unmarked) [Example 135, 6-(4-chlorophenyl)-5-(1,5-dimethyl-6-oxo-1,6-dihydropyridin-3-yl)-2-(1-methyl-1,2,3,6-tetrahydropyridin-4-yl)-5,6-dihydropyrrolo[3,4-d]imidazol-4(1H)-one]",31,806,>10000,64.9,111.5,3850,37,265,964,53
"COc1ccc(-c2nc3c(n2C(C)C)C(c2ccc(Cl)cc2)N(c2cc(C)c4nnn(C)c4n2)C3=O)cn1 (centres unmarked) [Example 138, 6-(4-chlorophenyl)-5-(3,7-dimethyl-3H-[1,2,3]triazolo[4,5-b]pyridin-5-yl)-1-isopropyl-2-(6-methoxypyridin-3-yl)-5,6-dihydropyrrolo[3,4-d]imidazol-4(1H)-one]",11,37.2,>10000,7.97,13,> 37000,11,9.37,23.6,26
"Cc1nc2c([nH]1)C(c1ccc(Cl)cc1)N(c1cc(C)c3nnc(C(F)F)n3c1)C2=O (centres unmarked) [Example 139, 6-(4-chlorophenyl)-5-(3-(difluoromethyl)-8-methyl-[1,2,4]triazolo[4,3-a]pyridin-6-yl)-2-methyl-5,6-dihydropyrrolo[3,4-d]imidazol-4(1H)-one]",32.5,214,>10000,57.5,99.2,> 37000,42,40.7,115.5,86
"COc1ncccc1-c1nc2c([nH]1)C(c1ccc(Cl)cc1)N(c1cc(C)c3nnc(C(F)F)n3c1)C2=O (centres unmarked) [Example 140, 6-(4-chlorophenyl)-5-(3-(difluoromethyl)-8-methyl-[1,2,4]triazolo[4,3-a]pyridin-6-yl)-2-(2-methoxypyridin-3-yl)-5,6-dihydropyrrolo[3,4-d]imidazol-4(1H)-one]",29,180,>10000,38.4,66.8,> 37000,28,63.6,124.5,42
"COc1ccc(-c2nc3c([nH]2)C(c2ccc(Cl)cc2)N(c2cc(C)c4nnc(C(F)F)n4c2)C3=O)cn1 (centres unmarked) [Example 141, 6-(4-chlorophenyl)-5-(3-(difluoromethyl)-8-methyl-[1,2,4]triazolo[4,3-a]pyridin-6-yl)-2-(6-methoxypyridin-3-yl)-5,6-dihydropyrrolo[3,4-d]imidazol-4(1H)-one]",23.5,202,>10000,73.2,111.5,> 37000,21,77,179,47
